Data published in publication PMC7822874, “Chemoprotective antimalarials identified through quantitative high-throughput screening of Plasmodium blood and liver stage parasites” (Scientific Reports, 2021).
Like-named read-outs stand apart in the source and are kept apart here.

How the values were obtained:
[1] = system: P. berghei-ANKA-GFP-LucCON liver stage parasites in HepG2-A16-CD81EGFP cells; assay: P. berghei liver stage Pb-Luc assay, Method 1 (UCSD, 1536-well); type: cell-based, Plasmodium berghei; settings: Plasmodium berghei, 48 h
HepG2-A16-CD81EGFP cells = settings: average of 2 wells; for HepG2 1uM growth rep1 / HepG2 1uM growth rep2: HepG2, 1 µM compound treatment (10 mM stocks); for HepG2 1uM growth rep1 / HepG2 3uM growth rep1: replicate 1, normalized; for HepG2 1uM growth rep2 / HepG2 3uM growth rep2: replicate 2, normalized; for HepG2 3uM growth rep1 / HepG2 3uM growth rep2: HepG2, 3 µM compound treatment (10 mM stocks)
[2] = system: Plasmodium falciparum Dd2 asexual blood stage parasites; assay: microbe, parasite or virus in culture; parameters: species or system Plasmodium falciparum Dd2 in human erythrocytes; single determination (one 11-point concentration-response curve); settings: Plasmodium falciparum, DD2, Erythrocyte, 72 h; read-out: AC50
[3] = P. berghei liver stage, 1 µM compound treatment (10 mM stocks), replicate 1, normalized, average of 2 wells on a 1536 well plate, read-out: PbLuc 1uM growth rep1
[4] = P. berghei liver stage, 1 µM compound treatment (10 mM stocks), replicate 2, normalized, average of 2 wells on a 1536 well plate, read-out: PbLuc 1uM growth rep2
[5] = P. berghei liver stage, 3 µM compound treatment (10 mM stocks), replicate 1, normalized, average of 2 wells on a 1536 well plate, read-out: PbLuc 3uM growth rep1
[6] = P. berghei liver stage, 3 µM compound treatment (10 mM stocks), replicate 2, normalized, average of 2 wells on a 1536 well plate, read-out: PbLuc 3uM growth rep2

SMILES | activity at 1 µM ([1]; nominal 1 uM (10 mM stock), […] for 15 mM, 1.2 uM for 12 mM, 2 uM for 20 mM stock, average of 2 wells, 1536-well plate, repeat 1, read-out: Pb-Luc signal, 1 uM, repeat 1) [%] | activity at 1 µM ([1]; nominal 1 uM (10 mM stock), […] for 15 mM, 1.2 uM for 12 mM, 2 uM for 20 mM stock, average of 2 wells, 1536-well plate, repeat 2, read-out: Pb-Luc signal, 1 uM, repeat 2) [%] | activity at 1 µM ([1]; nominal 1 uM (10 mM stock), […] for 15 mM, 1.2 uM for 12 mM, 2 uM for 20 mM stock, average of 2 wells, 1536-well plate, repeat 3, read-out: Pb-Luc signal, 1 uM, repeat 3) [%] | activity at 3 µM ([1]; nominal 3 uM (10 mM stock), 4.5 uM for 15 mM, 3.6 uM for 12 mM, 6 uM for 20 mM stock, average of 2 wells, 1536-well plate, repeat 1, read-out: Pb-Luc signal, 3 uM, repeat 1) [%] | activity at 3 µM ([1]; nominal 3 uM (10 mM stock), 4.5 uM for 15 mM, 3.6 uM for 12 mM, 6 uM for 20 mM stock, average of 2 wells, 1536-well plate, repeat 2, read-out: Pb-Luc signal, 3 uM, repeat 2) [%] | activity at 3 µM ([1]; nominal 3 uM (10 mM stock), 4.5 uM for 15 mM, 3.6 uM for 12 mM, 6 uM for 20 mM stock, average of 2 wells, 1536-well plate, repeat 3, read-out: Pb-Luc signal, 3 uM, repeat 3) [%] | HepG2 viability signal, 1 uM, repeat 1 (HepG2-A16-CD81EGFP cells; nominal 1 uM (10 mM stock), […] for 15 mM, 1.2 uM for 12 mM, 2 uM for 20 mM stock, repeat 1) [%] | HepG2 viability signal, 1 uM, repeat 2 (HepG2-A16-CD81EGFP cells; nominal 1 uM (10 mM stock), […] for 15 mM, 1.2 uM for 12 mM, 2 uM for 20 mM stock, repeat 2) [%] | HepG2 viability signal, 3 uM, repeat 1 (HepG2-A16-CD81EGFP cells; nominal 3 uM (10 mM stock), 4.5 uM for 15 mM, 3.6 uM for 12 mM, 6 uM for 20 mM stock, repeat 1) [%] | HepG2 viability signal, 3 uM, repeat 2 (HepG2-A16-CD81EGFP cells; nominal 3 uM (10 mM stock), 4.5 uM for 15 mM, 3.6 uM for 12 mM, 6 uM for 20 mM stock, repeat 2) [%] | AC50 [2] [nM] | activity at 1 µM [1, 3] [%] | activity at 1 µM [1, 4] [%] | activity at 3 µM [1, 5] [%] | activity at 3 µM [1, 6] [%] | HepG2 1uM growth rep1 (HepG2-A16-CD81EGFP cells) [%] | HepG2 1uM growth rep2 (HepG2-A16-CD81EGFP cells) [%] | HepG2 3uM growth rep1 (HepG2-A16-CD81EGFP cells) [%] | HepG2 3uM growth rep2 (HepG2-A16-CD81EGFP cells) [%]
COc1ccc(C2Sc3ccccc3N=C3C2=C(O)c2ccccc23)c(OC)c1OC (centres unmarked) [NCGC00108825-01] | 80.6 | 95.6 | 53.5 | 34.1 | 70.7 | 74.5 | 40.50 | 77.27 | 21.41 | 66.08 | 750 | – | – | – | – | – | – | – | –
Clc1ccc2c(N/N=C/c3cccc(Br)c3)ccnc2c1 [MLS000336198-01] | – | – | – | – | – | – | – | – | – | – | 10600 | 63 | 77 | 45 | 62 | 83 | 80 | 87 | 87
CCOC(=O)c1c(CN2CCN(c3ccccc3)CC2)oc2cc(Br)c(O)cc12 [MLS001198242-01] | – | – | – | – | – | – | – | – | – | – | 1880 | 136 | 107 | 96 | 86 | 109 | 100 | 87 | 95
Cc1noc(C)c1CSc1nc2sc3c(c2c(=O)n1C)CCCC3 [MLS000564913-01] | – | – | – | – | – | – | – | – | – | – | 8410 | 120 | 107 | 61 | 89 | 92 | 88 | 88 | 92
COc1cccc(-c2c(C#N)c(N)nc3c2c(C)nn3-c2ccccc2)c1O [MLS001214341-01] | – | – | – | – | – | – | – | – | – | – | 1500 | 118 | 95 | 106 | 118 | 104 | 95 | 90 | 91
Cc1ccnc(NC(=O)c2cccc(S(=O)(=O)N3CCCc4ccccc43)c2)c1 [MLS001159724-01] | – | – | – | – | – | – | – | – | – | – | 2370 | 100 | 97 | 38 | 52 | 101 | 95 | 90 | 89
CN(C)Cc1c(O)ccc2oc(Cc3ccccc3)cc12 [MLS000039159-01] | – | – | – | – | – | – | – | – | – | – | 422 | 98 | 102 | 63 | 108 | 108 | 93 | 87 | 92
Cc1cc(C)n(-c2nnc(N3CCN(c4ccccc4)CC3)nn2)n1 [MLS000695202-01] | – | – | – | – | – | – | – | – | – | – | 596 | 122 | 82 | 91 | 76 | 99 | 95 | 90 | 98
COc1cccc(NC(=O)CN(C)C(=O)c2ccc(-c3cccc(C(F)(F)F)c3)o2)c1 [MLS001071804-01] | – | – | – | – | – | – | – | – | – | – | 596 | 153 | 125 | 107 | 104 | 105 | 98 | 84 | 96
CC(NCc1ccccc1O)C12CC3CC(CC(C3)C1)C2 (centres unmarked) [MLS001173343-01] | – | – | – | – | – | – | – | – | – | – | 94.4 | 106 | 90 | 70 | 88 | 109 | 103 | 93 | 102
CCn1cnc2c(Nc3cc(F)cc(F)c3)nc(C#N)nc21 [MLS002471782-01] | – | – | – | – | – | – | – | – | – | – | 2370 | 155 | 128 | 149 | 187 | 88 | 82 | 83 | 89
COc1cc(C)cc(CN2CCC(Cc3ccccc3)CC2)c1O [MLS001178265-01] | – | – | – | – | – | – | – | – | – | – | 750 | 83 | 95 | 81 | 123 | 101 | 92 | 87 | 88
O=C(Nc1ccc(S(=O)(=O)N2CCOCC2)cc1)c1cc(-c2cc(Cl)ccc2O)n[nH]1 [MLS000778989-01] | – | – | – | – | – | – | – | – | – | – | 2660 | 131 | 90 | 37 | 31 | 107 | 100 | 70 | 76
COc1ccc(C2c3[nH]c4ccccc4c3C[C@H]3C(=O)N(C4CCN(Cc5ccccc5)CC4)CC(=O)N23)cc1OC (some centres unmarked) [MLS001215281-01] | – | – | – | – | – | – | – | – | – | – | 2990 | 95 | 94 | 66 | 79 | 107 | 95 | 91 | 90
